From patent US12410160B2 (Gilead Sciences, Inc., priority 2021, dated 2025)
Like-named read-outs stand apart in the source and are kept apart here.

How the values were obtained:
[1] = pKa analysis by capillary electrophoresis (pKa PRO Analyzer, co-solvent method); format: physicochemical; conditions: co-solvent method (60% to 30% methanol buffers); for pKa: methanol/aqueous co-solvent buffers
Procedure: The 10 mM DMSO stock solutions of test articles (TAs) were diluted 100-fold with either 2 mM HCl or 2 mM NaOH and methanol. The final concentration of methanol was 60%, TA concentration was 100 μM, and DMSO concentration was 1%. The TAs were transferred into 24 consecutive wells of a 96-well plate for analysis using the co-solvent method. […] All data was obtained using a pKa. PRO Analyzer (AATI, Ankey, IA) by performing four consecutive CE runs from 60% to 30% co-solvent buffers. Norfloxacin was used as a daily performance-indicating standard. The pKa values were predicted by using pKa. Estimator® software (AATI, Ankey, IA) by relating molecular weight of the TA to its mobility.

[2] = molecular target: KHK-C expressed in NRK-52E cells (Homo sapiens (Human), UniProt P50053); test: KHK-C Cell-based Assay (EC50), NRK CTG, fructose-mediated ATP-depletion
[3] = system: HepG2 cells; test: F1P Cell-Based Assay (EC50), 13C6-fructose-1-phosphate in HepG2 cells (cell culture medium or 50% human plasma); conditions: Homo sapiens
[4] = molecular target: human KHK-A (Homo sapiens (Human), UniProt P50053); test: KHK Biochemical Assay (IC50), ADP-Glo, KHK-A; conditions: average of at least two separate assays
Outline: (§1)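 His-tagged enzyme expressed in BL21 (DE3), Ni-NTA purified. Compounds, serially diluted 1:3 in DMSO, pre-incubated 30 min with enzyme in 50 mM Hepes pH 7.4, 140 mM KCl, 5 mM MgCl2, 0.01% Triton-X, then ATP and fructose added; 4 h at room temperature. ADP formation read by ADP-Glo luminescence.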

[5] = molecular target: human KHK-C (Homo sapiens (Human), UniProt P50053); test: KHK Biochemical Assay (IC50), ADP-Glo, KHK-C; conditions: average of at least two separate assays
Outline: as §1

[6] = molecular target: human OATP1B1 (Homo sapiens (Human), UniProt Q9Y6L6); test: In Vitro Inhibition Assessment with Human OATP1B1 Transporter; format: in vitro ADME; conditions: HEK293-OATP1B1 cells, probe substrate pravastatin
Outline: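 Pravastatin uptake was measured by LC-MS/MS after a 5 min exposure with inhibitor, following a 15 min inhibitor preincubation, in transfected versus mock HEK293 cells. Transport activity was derived as (transfected − mock) with compound over the same difference with solvent. IC50 is the concentration halving maximal activity; final DMSO was 0.4%.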

[7] = pH range 1.7-11.2, read-out: 1st pKa
[8] = HepG2, HepG2 cells, 50% human plasma, read-out: F1P 50% HP EC50
[9] = HepG2, read-out: F1P 10% FBS EC50, HepG2 cells, cell culture medium (10% FBS)
[10] = pH range 1.7-11.2, read-out: 2nd pKa

Sequence of human KHK-A (P50053 other isoform, or with tags, fused parts or gaps): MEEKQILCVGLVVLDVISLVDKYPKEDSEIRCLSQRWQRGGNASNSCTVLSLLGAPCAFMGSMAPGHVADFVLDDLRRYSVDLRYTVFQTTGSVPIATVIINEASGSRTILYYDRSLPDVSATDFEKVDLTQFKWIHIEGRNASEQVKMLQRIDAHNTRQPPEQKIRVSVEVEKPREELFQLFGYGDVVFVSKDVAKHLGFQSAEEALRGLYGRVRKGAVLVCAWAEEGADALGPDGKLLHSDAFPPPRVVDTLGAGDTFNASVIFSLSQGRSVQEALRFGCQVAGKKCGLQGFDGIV
Sequence of KHK-C expressed in NRK-52E cells (P50053 whole entry): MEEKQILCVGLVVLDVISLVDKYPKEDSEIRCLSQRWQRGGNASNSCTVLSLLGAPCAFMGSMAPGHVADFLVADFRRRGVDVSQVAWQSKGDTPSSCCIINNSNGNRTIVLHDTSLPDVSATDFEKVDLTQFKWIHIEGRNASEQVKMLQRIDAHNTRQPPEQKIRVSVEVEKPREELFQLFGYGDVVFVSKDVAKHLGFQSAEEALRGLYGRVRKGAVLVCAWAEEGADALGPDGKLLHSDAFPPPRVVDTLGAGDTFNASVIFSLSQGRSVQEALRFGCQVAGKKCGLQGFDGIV
Sequence of human KHK-C (P50053 whole entry): as above
Sequence of human OATP1B1 (Q9Y6L6 whole entry): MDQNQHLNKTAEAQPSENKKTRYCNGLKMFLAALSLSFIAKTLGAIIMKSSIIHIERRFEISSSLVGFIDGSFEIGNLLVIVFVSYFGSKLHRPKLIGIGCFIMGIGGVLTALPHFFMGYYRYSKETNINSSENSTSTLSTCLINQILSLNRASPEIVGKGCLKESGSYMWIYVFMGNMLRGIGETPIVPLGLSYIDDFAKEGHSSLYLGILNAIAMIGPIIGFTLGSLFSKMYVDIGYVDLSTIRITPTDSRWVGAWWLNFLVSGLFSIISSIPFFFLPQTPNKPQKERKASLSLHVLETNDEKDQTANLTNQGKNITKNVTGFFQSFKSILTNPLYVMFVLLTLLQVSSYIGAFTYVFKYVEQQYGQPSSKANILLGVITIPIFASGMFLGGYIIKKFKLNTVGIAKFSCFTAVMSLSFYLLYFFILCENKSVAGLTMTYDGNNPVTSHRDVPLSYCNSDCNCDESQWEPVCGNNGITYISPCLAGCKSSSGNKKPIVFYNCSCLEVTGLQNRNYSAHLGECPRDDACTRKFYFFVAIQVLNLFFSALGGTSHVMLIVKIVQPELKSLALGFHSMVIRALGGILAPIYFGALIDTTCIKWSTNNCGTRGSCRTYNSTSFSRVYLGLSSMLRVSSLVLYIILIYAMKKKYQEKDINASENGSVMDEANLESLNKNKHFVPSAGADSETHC

Row | SMILES | pKa [1, 7] | EC50 [2] | EC50 [3, 8] | EC50 [3, 9] | IC50 ([4]; ADP-Glo) | IC50 ([5]; ADP-Glo) | pKa [1, 10] | IC50 [4] | IC50 [5] | 1st pKa ([1]; pH range 1.7-11.2) | EC50 ([2]; read-out: NRK CTG EC50, NRK-52E cells, Cell-Titer Glo, 25 mM fructose, 48 hours) | IC50 [6]
1 | C[C@H]1[C@H](O)CN1c1nc(-c2ccc([C@]3(N)CCS(=O)(=O)C3)cc2)c2c(n1)C(F)(F)CC2 (single isomer, unassigned) [Example 795] | 4.9 | 0.0545 µM | 0.0888 µM | 0.0527 µM | 0.0241 µM | 0.0046 µM |  |  |  |  |  | 
2 | C[C@H]1CCN1c1nc2c(c(-c3ccns3)n1)CCC2 [Example 13, (S)-5-(2-(2-methylazetidin-1-yl)-6,7-dihydro-5H-cyclopenta[d]pyrimidin-4-yl)isothiazole] | 3.77 | 0.0894 µM |  |  | 0.034 µM | 0.0408 µM |  |  |  |  |  | 
3 | C[C@H]1CCN1c1nc2c(c(-c3cc[nH]n3)n1)CCC2 [Example 18, (S)-2-(2-methylazetidin-1-yl)-4-(1H-pyrazol-3-yl)-6,7-dihydro-5H-cyclopenta[d]pyrimidine] | 4.52 | 0.144 µM |  |  | 0.0551 µM | 0.0731 µM |  |  |  |  |  | 
4 | C[C@H]1CCN1c1nc2c(c(-c3ccncc3)n1)CCC2 [Example 22, (S)-2-(2-methylazetidin-1-yl)-4-(pyridin-4-yl)-6,7-dihydro-5H-cyclopenta[d]pyrimidine] | 2.86 | 0.288 µM |  |  | 0.147 µM | 0.0991 µM | 4.74 |  |  |  |  | 
5 | C[C@H]1CCN1c1nc2c(c(-c3cnn(C)c3)n1)CCC2 [Example 23, (S)-4-(1-methyl-1H-pyrazol-4-yl)-2-(2-methylazetidin-1-yl)-6,7-dihydro-5H-cyclopenta[d]pyrimidine] | 4.97 | 0.197 µM |  |  | 0.0689 µM | 0.0665 µM |  |  |  |  |  | 
6 | C[C@H]1CCN1c1nc2c(c(-c3cn4ccnc4s3)n1)CCC2 [Example 121, (S)-2-(2-(2-methylazetidin-1-yl)-6,7-dihydro-5H-cyclopenta[d]pyrimidin-4-yl)imidazo[2,1-b]thiazole] | 3.68 | 0.0873 µM |  |  | 0.0293 µM | 0.0241 µM | 5.35 |  |  |  |  | 
7 | C[C@H]1CCN1c1nc2c(c(-c3cccc(CN)c3)n1)CCC2 [Example 329, [3-[2-[(2S)-2-methylazetidin-1-yl]-6,7-dihydro-5H-cyclopenta[d]pyrimidin-4-yl]phenyl]methanamine] | 4.12 | 0.339 µM |  |  | 0.0245 µM | 0.0185 µM | 9.27 |  |  |  |  | 
8 | C[C@H]1CCN1c1nc2c(c(-c3ccccc3)n1)CCC2 [Example 331, 2-[(2S)-2-methylazetidin-1-yl]-4-phenyl-6,7-dihydro-5H-cyclopenta[d]pyrimidine] | 4.14 | 0.384 µM | 4.61 µM | 0.253 µM | 0.255 µM | 0.242 µM |  |  |  |  |  | 
9 | C[C@H]1CCN1c1nc2c(c(-c3ccc4cnc(O)cc4c3)n1)CCC2 [Example 380, 6-[2-[(2S)-2-methylazetidin-1-yl]-6,7-dihydro-5H-cyclopenta[d]pyrimidin-4-yl]isoquinolin-3-ol] | 4.21 | 0.0757 µM |  |  | 0.013 µM | 0.0079 µM | 9.04 |  |  |  |  | 
10 | C[C@H]1CCN1c1nc2c(c(-c3ccc4c(O)nc(O)cc4c3)n1)CCC2 [Example 381, 6-[2-[(2S)-2-methylazetidin-1-yl]-6,7-dihydro-5H-cyclopenta[d]pyrimidin-4-yl]isoquinoline-1,3-diol] | 4.12 | > 5 µM |  |  | 0.0189 µM | 0.0897 µM | 8.07 |  |  |  |  | 
11 | C[C@H]1CCN1c1nc2c(c(-c3cn(C4CNC4)nn3)n1)CCC2 [Example 461, (S)-4-(1-(azetidin-3-yl)-1H-1,2,3-triazol-4-yl)-2-(2-methylazetidin-1-yl)-6,7-dihydro-5H-cyclopenta[d]pyrimidine] | 3.9 | 0.116 µM |  |  |  |  |  |  | 0.0172 µM |  |  | 
12 | C[C@H]1[C@H](O)CN1c1nc(-c2cn(C3CNC3)nn2)c2c(n1)C(F)(F)CC2 [Example 647, (2S,3R)-1-[4-[1-(azetidin-3-yl)triazol-4-yl]-7,7-difluoro-5,6-dihydrocyclopenta[d]pyrimidin-2-yl]-2-methyl-azetidin-3-ol] | 8.2 | 0.225 µM |  |  |  |  |  |  |  |  |  | 
13 | C[C@H]1[C@H](F)CN1c1nc(-c2ccc([C@]3(N)C[S@@](=N)(=O)C3)cc2)c2c(n1)C(F)(F)CC2 [Example 797, (1R,3s)-3-amino-3-(4-(7,7-difluoro-2-((2S,3R)-3-fluoro-2-methylazetidin-1-yl)-6,7-dihydro-5H-cyclopenta[d]pyrimidin-4-yl)phenyl)-1-imino-1λ^6-thietane 1-oxide] |  |  |  |  | 0.0073 µM | 0.0002 µM |  |  |  | 4.7 | 0.0164 µM | 
14 | NC1(c2ccc(-c3nc(N4CC[C@@H]4C(F)(F)F)nc4c3CCC4(F)F)cc2)CS(=O)(=O)C1 [Example 802, (R)-3-amino-3-(4-(7,7-difluoro-2-(2-(trifluoromethyl)azetidin-1-yl)-6,7-dihydro-5H-cyclopenta[d]pyrimidin-4-yl)phenyl)thietane 1,1-dioxide] | 4.6 |  |  |  |  |  |  |  |  |  |  | 10.6 µM

Now from value to compound:

Row | pKa [1, 7] | EC50 [2] | EC50 [3, 8] | EC50 [3, 9] | IC50 ([4]; ADP-Glo) | IC50 ([5]; ADP-Glo) | pKa [1, 10] | IC50 [4] | IC50 [5] | 1st pKa ([1]; pH range 1.7-11.2) | EC50 ([2]; read-out: NRK CTG EC50, NRK-52E cells, Cell-Titer Glo, 25 mM fructose, 48 hours) | IC50 [6] | SMILES
15 | 4.25 | 0.0109 µM |  |  | 0.006 µM | 0.0026 µM | 6.48 |  |  |  |  |  | C[C@H]1CCN1c1nc2c(c(-c3ccc(C4(N)COC4)cc3)n1)CCC2 [Example 131, (S)-3-(4-(2-(2-methylazetidin-1-yl)-6,7-dihydro-5H-cyclopenta[d]pyrimidin-4-yl)phenyl)oxetan-3-amine]
16 | 3.59 | 0.0353 µM |  |  | 0.0123 µM | 0.0187 µM | 6.43 |  |  |  |  |  | C[C@H]1CCN1c1nc2c(c(-c3ccc4c(N)nc(N)nc4c3)n1)CCC2 [Example 147, (S)-7-(2-(2-methylazetidin-1-yl)-6,7-dihydro-5H-cyclopenta[d]pyrimidin-4-yl)quinazoline-2,4-diamine]
17 | 4.25 | 0.0062 µM |  |  | 0.0026 µM | 0.0014 µM | 8.01 |  |  |  |  |  | C[C@H]1CCN1c1nc2c(c(-c3ccc(C4(N)CC4)cc3)n1)CCC2 [Example 295, (S)-1-(4-(2-(2-methylazetidin-1-yl)-6,7-dihydro-5H-cyclopenta[d]pyrimidin-4-yl)phenyl)cyclopropan-1-amine]
18 | 3.69 | 0.0171 µM |  |  | 0.0227 µM | 0.0238 µM | 9.16 |  |  |  |  |  | C[C@H]1CCN1c1nc2c(c(-c3cccc(CN4CCC4)c3)n1)CCC2 [Example 347, 4-[3-(azetidin-1-ylmethyl)phenyl]-2-[(2S)-2-methylazetidin-1-yl]-6,7-dihydro-5H-cyclopenta[d]pyrimidine]
19 | 4.31 | 0.0026 µM | 0.0031 µM | 0.0013 µM | 0.0041 µM | 0.0046 µM | 9.19 |  |  |  |  |  | C[C@H]1CCN1c1nc2c(c(-c3ccc4c(c3)CCNC4)n1)CCC2 [Example 379, 6-[2-[(2S)-2-methylazetidin-1-yl]-6,7-dihydro-5H-cyclopenta[d]pyrimidin-4-yl]-1,2,3,4-tetrahydroisoquinoline]
20 | 4.66 | 0.0236 µM |  |  |  |  | 11.2 | 0.0109 µM | 0.0052 µM |  |  |  | C[C@H]1CCN1c1nc2c(c(-c3ccc(CNS(C)(=O)=O)s3)n1)CCC2 [Example 460, N-[[5-[2-[(2S)-2-methylazetidin-1-yl]-6,7-dihydro-5H-cyclopenta[d]pyrimidin-4-yl]-2-thienyl]methyl]methanesulfonamide]
21 | 4.2 | 0.0146 µM | 0.0117 µM |  |  |  |  |  | 0.0019 µM |  |  |  | C[C@H]1CCN1c1nc2c(c(-c3ccc4c(c3)OCC4N)n1)CCC2 (stereo partly drawn) [Example 754, 6-[2-[(2S)-2-methylazetidin-1-yl]-6,7-dihydro-5H-cyclopenta[d]pyrimidin-4-yl]-2,3-dihydrobenzofuran-3-amine]
22 | 7.1 | 0.037 µM |  |  |  |  |  |  | 0.0301 µM |  |  |  | C[C@H]1CCN1c1nc2c(c(-c3ccc(C4COCCN4)cc3)n1)CCC2 (stereo partly drawn) [Example 755, 3-[4-[2-[(2S)-2-methylazetidin-1-yl]-6,7-dihydro-5H-cyclopenta[d]pyrimidin-4-yl]phenyl]morpholine]
23 | 4.2 | 0.0321 µM |  |  |  |  |  |  | 0.0187 µM |  |  |  | C[C@H]1CCN1c1nc2c(c(-c3ccc(C(N)CS(C)(=O)=O)cc3)n1)CCC2 (stereo partly drawn) [Example 768, 1-(4-(2-((S)-2-methylazetidin-1-yl)-6,7-dihydro-5H-cyclopenta[d]pyrimidin-4-yl)phenyl)-2-(methylsulfonyl)ethan-1-amine]
